Data taken from US11951094B2, “TLR2 modulator compounds, pharmaceutical compositions and uses thereof” (Axial Therapeutics, Inc., priority 2020, dated 2024).
Counter-ions that a name gives are not always drawn.

Target: TLR2 (Homo sapiens, UniProt O60603)
Experiment: TLR2 agonist screening assay, HEK-Blue TLR2 reporter cell line (NF-kB-driven SEAP, absorbance at 600 nm)
Type: cell-based
Parameters: host or cells: HEK-293 (HEK-Blue TLR2 reporter cell line)
Details: HEK-Blue TLR2 reporter cells, agonist mode
Excerpt: TLRs are a class of cell-surface receptors expressed on many different cell types that recognize conserved structural motifs present on pathogen-derived molecules. TLR2 recognizes bacteria-derived lipopeptides. […] Provided herein is an assay to identify and characterize the binding affinities of novel TLR2 agonists.
The in vitro TLR2 assay consists of a cell line that responds to TLR2 engagement by producing a factor that elicits a color change in the culture media and can be readily measured by various colorimetric detection methods. This assay enables the identification of existing and novel compounds that engage TLR2 and, by virtue of compound dilution, to approximate the binding affinity of these compounds for eliciting a TLR2 signal.
The TLR2 screening assay was developed from the HEK-Blue TLR2 reporter cell line that is commercially available from Invivogen (San Diego, CA). The reporter cell line consists of HEK-293 embryonic kidney cells that have been engineered to express TLR2 and with an NF-kB promoter driving expression of Secreted Alkaline Phosphatase (SEAP). Upon engagement of TLR2, downstream signaling results in activation of NF-kB pathway activation and secretion of SEAR In the presence of the detection reagent in the tissue culture media, SEAP mediates a color change from clear to indigo that is readily assessed by measuring absorbance at 600 nm.
HEK-Blue TLR2 reporter cells are cultured according to manufacturer's specifications until a confluence of 70-90%, at which point the cells are trypsinized, counted, and plated into 96-well plates at approximately 40,000 cells per well. Cells are cultured overnight and the TLR2 assay is performed 16-24 hours post-plating into 96 well plates.
Compounds are diluted from stocks dissolved in DMSO and a 1% DMSO final concentration is maintained in all testing wells.
The assay consists of removing the cell culture media after cells have been cultured overnight and replacing the media with HEK-Blue Detection media with TLR2 agonists at indicated dilution schemes. The Detection media contains a chemical substrate that turns from clear to indigo when acted upon by SEAP. The HEK-Blue cells are then cultured overnight in Detection media with diluted compounds. After overnight culture with agonists, each well of the plate is assayed in a plate reader at 600 nanometer absorbance.
• (1) HEK-Blue TLR2 cells are diluted in complete DME culture medium and plated into 96-well plates at 40,000 cells per well and cultured overnight. • (2) After 16-24 hours in culture, the media is removed and replaced with 200 microliters per well of HEK-Blue Detection media. • (3) TLR2 agonists are diluted 100-fold from DMSO stocks into each well, yielding a final DMSO concentration of 1% in all wells. • (3) Treated cells are cultured overnight and the following day are assayed in plate reader for Absorbance at 600 nanometer.
Following assay measurements utilizing either HEK-Blue detection or cytokine release, all data is analyzed with the GraphPad Prism8 statistical package to determine EC50, binding and activity metrics for the TLR2 modulators.
Data is generated using protocol described in Example 44.

Sequence of TLR2 (O60603 21-784): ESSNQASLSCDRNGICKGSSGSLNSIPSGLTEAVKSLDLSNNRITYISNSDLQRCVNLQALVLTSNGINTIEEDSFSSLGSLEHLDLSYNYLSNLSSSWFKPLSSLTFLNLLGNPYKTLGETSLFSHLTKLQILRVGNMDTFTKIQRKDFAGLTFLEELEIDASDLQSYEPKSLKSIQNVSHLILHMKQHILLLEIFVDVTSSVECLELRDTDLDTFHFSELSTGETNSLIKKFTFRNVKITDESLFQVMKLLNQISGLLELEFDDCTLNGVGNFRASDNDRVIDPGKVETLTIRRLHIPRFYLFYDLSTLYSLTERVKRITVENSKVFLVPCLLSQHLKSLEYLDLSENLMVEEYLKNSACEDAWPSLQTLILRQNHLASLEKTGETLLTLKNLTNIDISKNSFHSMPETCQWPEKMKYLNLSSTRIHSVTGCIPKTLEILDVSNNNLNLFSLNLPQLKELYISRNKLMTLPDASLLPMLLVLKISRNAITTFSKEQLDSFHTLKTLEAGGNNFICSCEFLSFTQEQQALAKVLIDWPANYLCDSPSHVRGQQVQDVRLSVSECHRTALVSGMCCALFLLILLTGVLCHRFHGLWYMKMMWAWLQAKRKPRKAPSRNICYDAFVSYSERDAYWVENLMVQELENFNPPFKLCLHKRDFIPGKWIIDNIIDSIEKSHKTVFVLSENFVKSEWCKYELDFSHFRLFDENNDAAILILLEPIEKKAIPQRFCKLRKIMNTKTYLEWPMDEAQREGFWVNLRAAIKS

Structure (SMILES) | EC50 (average of all runs (Table 3)) [nM] | EC50 (average of all runs (Table 4)) [nM]
CCCCCCCC(=O)N1CCN(C(=O)c2ccc(C(=O)N3C[C@@H](C(=O)N[C@H]4C[C@@H]4c4ccccc4)[C@H](C(=O)N[C@H]4C[C@@H]4c4ccccc4)C3)cc2)CC1C(=O)NCCCCC (stereo partly drawn) [Compound 052, (3S,4S)-1-(4-(4-octanoyl-3-(pentylcarbamoyl)piperazine-1-carbonyl)benzoyl)-N3,N4-bis((1S,2R)-2-phenylcyclopropyl)pyrrolidine-3,4-dicarboxamide] | 0.1 to 50 | –
O=C(N[C@H]1C[C@@H]1c1ccccc1)[C@@H]1CN(C(=O)c2cccc(C(=O)N3C[C@@H](C(=O)N[C@H]4C[C@@H]4c4ccccc4)[C@H](C(=O)N[C@H]4C[C@@H]4c4ccccc4)C3)c2)C[C@H]1C(=O)N[C@H]1C[C@@H]1c1ccccc1 (racemic) [Compound 001] | > 1000 | –
CCCCCCNC(=O)[C@H](CNC(=O)c1ccc(C(=O)N2C[C@@H](C(=O)N[C@H]3C[C@@H]3c3ccccc3)[C@H](C(=O)N[C@H]3C[C@@H]3c3ccccc3)C2)cc1)NC(=O)NCc1ccc(F)cc1 [Compound 186, (3S,4S)-1-(4-(((S)-2-(3-(4-fluorobenzyl)ureido)-3-(hexylamino)-3-oxopropyl)carbamoyl)benzoyl)-N^3,N^4-bis((1S,2R)-2-phenylcyclopropyl) pyrrolidine-3,4-dicarboxamide] | – | 0.1 to 50
CCCCCCNC(=O)[C@H](CN[C@@H](c1ccc(C(=O)N2C[C@@H](C(=O)N[C@H]3C[C@@H]3c3ccccc3)[C@H](C(=O)N[C@H]3C[C@@H]3c3ccccc3)C2)cc1)C(F)(F)F)NC(=O)CCCCCC (single isomer, unassigned) [Compound 148] | – | 351 to 1000
CCCNC(=O)[C@@H]1CN(C(=O)c2ccc(C(=O)N3C[C@@H](C(=O)N[C@H]4C[C@@H]4c4ccccc4)[C@H](C(=O)N[C@H]4C[C@@H]4c4ccccc4)C3)cc2)CCN1C(C)=O [Compound 265, (3S,4S)-1-(4-((S)-4-acetyl-3-(propylcarbamoyl)piperazine-1-carbonyl)benzoyl)-N3,N4-bis((1S,2R)-2-phenylcyclopropyl) pyrrolidine-3,4-dicarboxamide] | – | > 1000
CCCCCCNC(=O)C[C@H](NC(=O)c1ccc(C(=O)N2C[C@@H](C(=O)N[C@H]3C[C@@H]3c3ccccc3)[C@H](C(=O)N[C@H]3C[C@@H]3c3ccccc3)C2)cc1)C(=O)NCCCCCC [Compound 014] | > 1000 | –
CCCCCCCCNC(=O)[C@H](CNC(=O)c1ccc(C(=O)N2C[C@@H](C(=O)N[C@H]3C[C@@H]3c3ccccc3)[C@H](C(=O)N[C@H]3C[C@@H]3c3ccccc3)C2)cc1)NC(=O)CCCCCC [Compound 141, (3S,4S)-1-(4-(((S)-2-heptanamido-3-(octylamino)-3-oxopropyl)carbamoyl)benzoyl)-N3,N4-bis((1S,2R)-2-phenylcyclopropyl)pyrrolidine-3,4-dicarboxamide] | – | 0.1 to 50
CCCCCCC(=O)N[C@@H](CNC(=O)c1ccc(C(=O)N2C[C@@H](C(=O)N[C@H]3C[C@@H]3c3ccccc3)[C@H](C(=O)N[C@H]3C[C@@H]3c3ccccc3)C2)cc1)C(=O)NCCCC [Compound 131, (3S,4S)-1-(4-(((S)-3-(butylamino)-2-heptanamido-3-oxopropyl)carbamoyl)benzoyl)-N3,N4-bis((1S,2R)-2-phenylcyclopropyl)pyrrolidine-3,4-dicarboxamide] | – | 351 to 1000
CCCCCCNC(=O)[C@H]1CN(C(c2ccc(C(=O)N3C[C@@H](C(=O)N[C@H]4C[C@@H]4c4ccccc4)[C@H](C(=O)N[C@H]4C[C@@H]4c4ccccc4)C3)cc2)C(F)(F)F)CCN1C(=O)CCCCCC (stereo partly drawn) [Compound 158, (3S,4S)—N3,N4-bis((1S,2R)-2-phenylcyclopropyl)-1-(4-(2,2,2-trifluoro-1-((R)-4-heptanoyl-3-(hexylcarbamoyl)piperazin-1-yl)ethyl)benzoyl)pyrrolidine-3,4-dicarboxamide] | – | > 1000
CCCCCCNC(=O)C1CN(C(=O)c2ccc(C(=O)N3C[C@@H](C(=O)N[C@H]4C[C@@H]4c4ccccc4)[C@H](C(=O)N[C@H]4C[C@@H]4c4ccccc4)C3)cc2)CCN1C(=O)CCc1ccc(F)cc1 (stereo partly drawn) [Compound 041, (3S,4S)-1-(4-(4-(3-(4-fluorophenyl)propanoyl)-3-(hexylcarbamoyl)piperazine-1-carbonyl)benzoyl)-N3,N4-bis((1S,2R)-2-phenylcyclopropyl)pyrrolidine-3,4-dicarboxamide] | 351 to 1000 | –

Other lines, results leading:

EC50 (average of all runs (Table 3)) [nM] | EC50 (average of all runs (Table 4)) [nM] | Structure (SMILES)
– | 0.1 to 50 | CCCCCCCCCCCCCCCN1CCCC(NC(=O)c2ccc(C(=O)N3C[C@@H](C(=O)N[C@H]4C[C@@H]4c4ccccc4)[C@H](C(=O)N[C@H]4C[C@@H]4c4ccccc4)C3)cc2)C1=O (stereo partly shown) [Compound 136]
– | > 1000 | CCCCCCCCCCCCCCNC(=O)[C@@H]1CN(C(=O)c2ccc(C(=O)N3C[C@@H](C(=O)N[C@H]4C[C@@H]4c4ccccc4)[C@H](C(=O)N[C@H]4C[C@@H]4c4ccccc4)C3)cc2)C[C@H]1N(C)[C@H](C)c1ccccc1 [Compound 090, (3S,4S)-1-(4-((3S,4R)-3-(methyl((R)-1-phenylethyl)amino)-4-(tetradecylcarbamoyl)pyrrolidine-1-carbonyl)benzoyl)-N3,N4-bis((1S,2R)-2-phenylcyclopropyl)pyrrolidine-3,4-dicarboxamide]
– | 51 to 350 | CCCCCCCO[C@H]1CN(C(=O)c2ccc(C(=O)N3C[C@@H](C(=O)N[C@H]4C[C@@H]4c4ccccc4)[C@H](C(=O)N[C@H]4C[C@@H]4c4ccccc4)C3)cc2)C[C@@H]1C(=O)NCCCCCC (relative stereo) [Compound 113, (3S,4S)-1-(4-((3R*,4S*)-3-(heptyloxy)-4-(hexylcarbamoyl)pyrrolidine-1-carbonyl)benzoyl)-N3,N4-bis((1S,2R)-2-phenylcyclopropyl)pyrrolidine-3,4-dicarboxamide]
0.1 to 50 | – | CCCCCCCC(=O)N1CCN(C(=O)c2ccc(C(=O)N3C[C@@H](C(=O)N[C@H]4C[C@@H]4c4ccccc4)[C@H](C(=O)N[C@H]4C[C@@H]4c4ccccc4)C3)cc2)CC1C(=O)NCCCCCC (stereo partly drawn) [Compound 019, (3S,4S)-1-(4-(3-(hexylcarbamoyl)-4-octanoylpiperazine-1-carbonyl)benzoyl)-N3,N4-bis((1S,2R)-2-phenylcyclopropyl)pyrrolidine-3,4-dicarboxamide]
– | > 1000 | CCCCCCCCCCCCCCNC(=O)[C@H]1CN(S(=O)(=O)c2ccc(C(=O)N3C[C@@H](C(=O)N[C@H]4C[C@@H]4c4ccccc4)[C@H](C(=O)N[C@H]4C[C@@H]4c4ccccc4)C3)cc2)CCN1C(C)=O [Compound 195, (3S,4S)-1-(4-(((R)-4-acetyl-3-(tetradecylcarbamoyl)piperazin-1-yl)sulfonyl)benzoyl)-N3,N4-bis((1S,2R)-2-phenylcyclopropyl)pyrrolidine-3,4-dicarboxamide]
0.1 to 50 | – | CCCCCCCCCCCCCCNC(=O)C1CN(C(=O)c2ccc(C(=O)N3C[C@@H](C(=O)N[C@H]4C[C@@H]4c4ccccc4)[C@H](C(=O)N[C@H]4C[C@@H]4c4ccccc4)C3)cc2)CCN1C (stereo partly drawn) [Compound 023, (3S,4S)-1-(4-(4-methyl-3-(tetradecylcarbamoyl)piperazine-1-carbonyl)benzoyl)-N3,N4-bis((1S,2R)-2-phenylcyclopropyl)pyrrolidine-3,4-dicarboxamide formate]
– | 0.1 to 50 | CCCCCCCCCCCCCCNC(=O)[C@@H]1CN(C(=O)c2ccc(C(=O)N3C[C@@H](C(=O)N[C@H]4C[C@@H]4c4ccccc4)[C@H](C(=O)N[C@H]4C[C@@H]4c4ccccc4)C3)cc2)C[C@H]1NC [Compound 098, (3S,4S)-1-(4-((3S,4R)-3-(methylamino)-4-(tetradecylcarbamoyl)pyrrolidine-1-carbonyl)benzoyl)-N3,N4-bis((1S,2R)-2-phenylcyclopropyl)pyrrolidine-3,4-dicarboxamide]
– | 351 to 1000 | CCCCCCCCCCCCCNC(=O)N[C@H]1CN(C(=O)Nc2ccc(C(=O)N3C[C@@H](C(=O)N[C@H]4C[C@@H]4c4ccccc4)[C@H](C(=O)N[C@H]4C[C@@H]4c4ccccc4)C3)cc2)C[C@@H]1OC [Compound 238, (3S,4S)-1-(4-((3S,4S)-3-methoxy-4-(3-tridecylureido)pyrrolidine-1-carboxamido)benzoyl)-N3,N4-bis((1S,2R)-2-phenylcyclopropyl)pyrrolidine-3,4-dicarboxamide]
> 1000 | – | CCCCCCNC(=O)[C@@H]1C[C@@H](C(=O)NCCCCCC)CN(C(=O)c2ccc(C(=O)N3C[C@@H](C(=O)N[C@H]4C[C@@H]4c4ccccc4)[C@H](C(=O)N[C@H]4C[C@@H]4c4ccccc4)C3)cc2)C1 [Compound 043]
